Measured values reported in ChEMBL document CHEMBL3991601, “The target landscape of clinical kinase drugs” (Science, 2017).
Calls of active or inactive are those of the source.

How the values were obtained:
[1] = biological target: 26S proteasome regulatory subunit 6B (Homo sapiens, UniProt P43686)
[2] = biological target: T1, Tyrosine--tRNA ligase, cytoplasmic (Homo sapiens, UniProt P54577)
T1 sequence (P54577 whole entry): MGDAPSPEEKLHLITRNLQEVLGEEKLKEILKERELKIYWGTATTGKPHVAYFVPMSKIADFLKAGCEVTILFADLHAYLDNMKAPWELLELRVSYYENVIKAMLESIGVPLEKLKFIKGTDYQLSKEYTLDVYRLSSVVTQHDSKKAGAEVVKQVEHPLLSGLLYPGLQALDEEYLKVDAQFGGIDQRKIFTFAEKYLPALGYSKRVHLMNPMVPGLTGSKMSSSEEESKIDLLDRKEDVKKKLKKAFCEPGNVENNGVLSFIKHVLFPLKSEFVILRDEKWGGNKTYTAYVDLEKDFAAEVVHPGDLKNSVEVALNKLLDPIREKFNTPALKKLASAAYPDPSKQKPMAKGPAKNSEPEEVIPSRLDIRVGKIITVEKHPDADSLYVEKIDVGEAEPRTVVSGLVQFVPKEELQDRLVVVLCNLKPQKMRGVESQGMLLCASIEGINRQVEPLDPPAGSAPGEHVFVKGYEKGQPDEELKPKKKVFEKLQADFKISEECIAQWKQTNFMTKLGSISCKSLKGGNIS

[3] = biological target: T2, Succinate--CoA ligase [ADP-forming] subunit beta, mitochondrial (Homo sapiens, UniProt Q9P2R7)
T2 sequence (Q9P2R7 whole entry): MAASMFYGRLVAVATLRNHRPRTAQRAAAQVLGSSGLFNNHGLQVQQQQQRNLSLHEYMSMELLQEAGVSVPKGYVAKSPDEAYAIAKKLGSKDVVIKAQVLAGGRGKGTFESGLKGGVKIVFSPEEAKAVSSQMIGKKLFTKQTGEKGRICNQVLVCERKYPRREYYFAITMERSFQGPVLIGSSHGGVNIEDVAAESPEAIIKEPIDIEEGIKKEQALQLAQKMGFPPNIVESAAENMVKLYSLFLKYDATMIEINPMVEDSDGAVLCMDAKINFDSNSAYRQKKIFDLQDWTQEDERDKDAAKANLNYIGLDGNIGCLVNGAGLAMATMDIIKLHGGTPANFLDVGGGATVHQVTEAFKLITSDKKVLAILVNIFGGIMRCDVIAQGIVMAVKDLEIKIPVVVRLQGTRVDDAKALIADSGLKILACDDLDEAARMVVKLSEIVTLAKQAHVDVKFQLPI

[4] = biological target: T3, Serine/threonine-protein kinase NLK (Homo sapiens, UniProt Q9UBE8)
T3 sequence (Q9UBE8 whole entry): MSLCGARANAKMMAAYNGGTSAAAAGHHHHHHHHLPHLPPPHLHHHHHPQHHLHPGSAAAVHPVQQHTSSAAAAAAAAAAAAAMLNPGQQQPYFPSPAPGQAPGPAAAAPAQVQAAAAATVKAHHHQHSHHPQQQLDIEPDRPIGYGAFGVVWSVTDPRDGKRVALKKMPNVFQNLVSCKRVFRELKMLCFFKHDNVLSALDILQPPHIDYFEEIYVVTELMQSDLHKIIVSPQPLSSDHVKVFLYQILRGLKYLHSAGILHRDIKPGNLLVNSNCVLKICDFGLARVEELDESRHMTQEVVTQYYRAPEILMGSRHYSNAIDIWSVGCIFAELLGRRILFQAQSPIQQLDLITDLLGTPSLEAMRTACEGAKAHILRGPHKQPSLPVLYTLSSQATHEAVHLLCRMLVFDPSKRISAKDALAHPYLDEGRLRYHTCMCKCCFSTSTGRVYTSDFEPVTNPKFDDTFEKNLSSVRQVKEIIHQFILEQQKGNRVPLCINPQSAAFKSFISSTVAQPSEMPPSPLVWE

[5] = biological target: Ephrin type-A receptor 5 (Homo sapiens, UniProt P54756)
[6] = biological target: Tyrosine-protein kinase Fyn (Homo sapiens, UniProt P06241)
[7] = biological target: T4, Non-receptor tyrosine-protein kinase TNK1 (Homo sapiens, UniProt Q13470)
T4 sequence (Q13470 whole entry): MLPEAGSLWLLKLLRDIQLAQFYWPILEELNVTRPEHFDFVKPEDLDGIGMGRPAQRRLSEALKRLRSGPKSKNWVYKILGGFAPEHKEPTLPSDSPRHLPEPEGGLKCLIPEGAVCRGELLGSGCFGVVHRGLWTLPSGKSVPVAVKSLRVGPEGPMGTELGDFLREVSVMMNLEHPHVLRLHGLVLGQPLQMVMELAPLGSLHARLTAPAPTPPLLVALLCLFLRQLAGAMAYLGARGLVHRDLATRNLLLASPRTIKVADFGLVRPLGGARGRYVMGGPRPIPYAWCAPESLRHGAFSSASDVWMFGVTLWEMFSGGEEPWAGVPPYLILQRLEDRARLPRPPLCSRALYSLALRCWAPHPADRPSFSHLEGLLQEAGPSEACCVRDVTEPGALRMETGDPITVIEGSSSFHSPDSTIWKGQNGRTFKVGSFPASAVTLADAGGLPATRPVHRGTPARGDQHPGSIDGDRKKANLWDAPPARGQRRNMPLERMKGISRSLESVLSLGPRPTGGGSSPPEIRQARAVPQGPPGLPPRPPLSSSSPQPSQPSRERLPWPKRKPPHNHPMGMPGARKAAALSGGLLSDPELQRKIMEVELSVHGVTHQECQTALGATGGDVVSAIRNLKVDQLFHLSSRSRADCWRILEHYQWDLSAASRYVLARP

[8] = biological target: T5, Ras-related protein Rab-27A (Homo sapiens, UniProt P51159)
T5 sequence (P51159 whole entry): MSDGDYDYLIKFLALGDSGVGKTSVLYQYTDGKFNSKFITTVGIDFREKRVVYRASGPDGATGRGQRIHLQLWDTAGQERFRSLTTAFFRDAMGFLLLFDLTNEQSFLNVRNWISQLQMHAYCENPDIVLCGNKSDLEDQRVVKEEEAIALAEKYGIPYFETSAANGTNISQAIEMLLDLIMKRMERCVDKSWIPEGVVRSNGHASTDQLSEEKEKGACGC

[9] = biological target: Serine/threonine-protein kinase/endoribonuclease IRE2 (Homo sapiens, UniProt Q76MJ5)
[10] = biological target: STE20-like serine/threonine-protein kinase (Homo sapiens, UniProt Q9H2G2)
[11] = biological target: Structural maintenance of chromosomes protein 2 (Homo sapiens, UniProt O95347)
Also: in the data inactive means no Kd found up to 30 µM.

Chain of STE20-like serine/threonine-protein kinase (Q9H2G2 whole entry): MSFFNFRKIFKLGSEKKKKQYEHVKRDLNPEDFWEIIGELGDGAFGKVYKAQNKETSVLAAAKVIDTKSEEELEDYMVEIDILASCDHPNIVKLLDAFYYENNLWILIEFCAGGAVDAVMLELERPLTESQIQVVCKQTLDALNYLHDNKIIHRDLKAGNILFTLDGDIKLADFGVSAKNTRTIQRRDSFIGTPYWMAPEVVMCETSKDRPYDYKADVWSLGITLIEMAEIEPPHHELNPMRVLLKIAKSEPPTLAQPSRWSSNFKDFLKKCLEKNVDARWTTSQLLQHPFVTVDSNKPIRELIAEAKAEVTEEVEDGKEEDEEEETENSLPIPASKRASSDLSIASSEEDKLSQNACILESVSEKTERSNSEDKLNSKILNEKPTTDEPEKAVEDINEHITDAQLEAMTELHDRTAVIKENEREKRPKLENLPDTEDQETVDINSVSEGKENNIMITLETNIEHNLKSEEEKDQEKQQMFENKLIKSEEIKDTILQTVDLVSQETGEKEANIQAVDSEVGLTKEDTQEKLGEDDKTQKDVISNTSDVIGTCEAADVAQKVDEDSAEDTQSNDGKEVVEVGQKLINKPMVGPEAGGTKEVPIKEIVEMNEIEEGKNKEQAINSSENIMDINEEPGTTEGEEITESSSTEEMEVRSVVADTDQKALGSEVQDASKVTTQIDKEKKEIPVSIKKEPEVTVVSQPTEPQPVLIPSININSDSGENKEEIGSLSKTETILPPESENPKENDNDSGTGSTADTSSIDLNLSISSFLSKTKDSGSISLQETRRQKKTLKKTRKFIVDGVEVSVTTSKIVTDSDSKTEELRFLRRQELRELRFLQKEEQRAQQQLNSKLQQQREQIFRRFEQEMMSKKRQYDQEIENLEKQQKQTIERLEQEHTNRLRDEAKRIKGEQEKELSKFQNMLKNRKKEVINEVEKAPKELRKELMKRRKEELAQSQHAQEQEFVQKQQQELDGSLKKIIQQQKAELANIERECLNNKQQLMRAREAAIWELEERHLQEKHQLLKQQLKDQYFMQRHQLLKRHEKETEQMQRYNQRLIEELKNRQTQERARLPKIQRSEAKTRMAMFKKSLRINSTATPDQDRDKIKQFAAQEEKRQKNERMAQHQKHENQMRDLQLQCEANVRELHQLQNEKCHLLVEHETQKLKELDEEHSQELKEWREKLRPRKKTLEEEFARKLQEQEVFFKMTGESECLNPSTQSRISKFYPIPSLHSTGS
Chain of 26S proteasome regulatory subunit 6B (P43686 whole entry): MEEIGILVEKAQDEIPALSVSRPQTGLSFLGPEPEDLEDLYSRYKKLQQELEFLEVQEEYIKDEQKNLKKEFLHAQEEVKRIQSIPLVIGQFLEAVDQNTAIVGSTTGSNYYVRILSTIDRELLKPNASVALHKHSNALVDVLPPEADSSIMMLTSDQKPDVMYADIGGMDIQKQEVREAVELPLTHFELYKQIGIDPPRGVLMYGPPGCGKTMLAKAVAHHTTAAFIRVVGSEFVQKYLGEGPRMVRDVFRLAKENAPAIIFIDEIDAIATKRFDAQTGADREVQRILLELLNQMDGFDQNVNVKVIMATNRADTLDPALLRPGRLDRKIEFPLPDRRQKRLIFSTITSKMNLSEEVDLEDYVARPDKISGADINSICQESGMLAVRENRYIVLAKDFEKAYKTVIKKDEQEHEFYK
Chain of Serine/threonine-protein kinase/endoribonuclease IRE2 (Q76MJ5 whole entry): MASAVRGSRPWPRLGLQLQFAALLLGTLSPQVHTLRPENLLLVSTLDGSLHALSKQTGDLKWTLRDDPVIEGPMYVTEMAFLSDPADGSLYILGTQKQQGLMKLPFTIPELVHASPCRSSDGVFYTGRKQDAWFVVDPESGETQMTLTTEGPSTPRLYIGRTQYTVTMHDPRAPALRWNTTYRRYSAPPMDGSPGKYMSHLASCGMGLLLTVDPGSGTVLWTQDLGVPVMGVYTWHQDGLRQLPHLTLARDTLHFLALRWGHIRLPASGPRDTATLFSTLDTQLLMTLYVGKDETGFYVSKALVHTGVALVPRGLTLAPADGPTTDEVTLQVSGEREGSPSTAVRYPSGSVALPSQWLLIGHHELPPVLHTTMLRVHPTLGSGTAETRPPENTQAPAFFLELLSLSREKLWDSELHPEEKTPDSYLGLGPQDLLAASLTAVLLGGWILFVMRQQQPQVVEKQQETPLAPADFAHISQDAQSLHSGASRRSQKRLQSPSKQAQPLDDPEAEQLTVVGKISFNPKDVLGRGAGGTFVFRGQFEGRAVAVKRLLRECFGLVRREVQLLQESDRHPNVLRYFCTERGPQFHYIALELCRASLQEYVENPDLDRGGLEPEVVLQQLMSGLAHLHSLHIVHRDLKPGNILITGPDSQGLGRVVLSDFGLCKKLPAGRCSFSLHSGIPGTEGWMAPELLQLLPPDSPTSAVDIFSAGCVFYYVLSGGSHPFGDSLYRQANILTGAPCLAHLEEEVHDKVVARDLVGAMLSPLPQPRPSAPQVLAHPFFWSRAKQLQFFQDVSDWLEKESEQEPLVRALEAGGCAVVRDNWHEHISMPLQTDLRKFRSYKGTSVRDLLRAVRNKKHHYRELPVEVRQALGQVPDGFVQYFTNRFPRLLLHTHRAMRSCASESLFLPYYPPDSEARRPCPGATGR
Chain of Structural maintenance of chromosomes protein 2 (O95347 whole entry): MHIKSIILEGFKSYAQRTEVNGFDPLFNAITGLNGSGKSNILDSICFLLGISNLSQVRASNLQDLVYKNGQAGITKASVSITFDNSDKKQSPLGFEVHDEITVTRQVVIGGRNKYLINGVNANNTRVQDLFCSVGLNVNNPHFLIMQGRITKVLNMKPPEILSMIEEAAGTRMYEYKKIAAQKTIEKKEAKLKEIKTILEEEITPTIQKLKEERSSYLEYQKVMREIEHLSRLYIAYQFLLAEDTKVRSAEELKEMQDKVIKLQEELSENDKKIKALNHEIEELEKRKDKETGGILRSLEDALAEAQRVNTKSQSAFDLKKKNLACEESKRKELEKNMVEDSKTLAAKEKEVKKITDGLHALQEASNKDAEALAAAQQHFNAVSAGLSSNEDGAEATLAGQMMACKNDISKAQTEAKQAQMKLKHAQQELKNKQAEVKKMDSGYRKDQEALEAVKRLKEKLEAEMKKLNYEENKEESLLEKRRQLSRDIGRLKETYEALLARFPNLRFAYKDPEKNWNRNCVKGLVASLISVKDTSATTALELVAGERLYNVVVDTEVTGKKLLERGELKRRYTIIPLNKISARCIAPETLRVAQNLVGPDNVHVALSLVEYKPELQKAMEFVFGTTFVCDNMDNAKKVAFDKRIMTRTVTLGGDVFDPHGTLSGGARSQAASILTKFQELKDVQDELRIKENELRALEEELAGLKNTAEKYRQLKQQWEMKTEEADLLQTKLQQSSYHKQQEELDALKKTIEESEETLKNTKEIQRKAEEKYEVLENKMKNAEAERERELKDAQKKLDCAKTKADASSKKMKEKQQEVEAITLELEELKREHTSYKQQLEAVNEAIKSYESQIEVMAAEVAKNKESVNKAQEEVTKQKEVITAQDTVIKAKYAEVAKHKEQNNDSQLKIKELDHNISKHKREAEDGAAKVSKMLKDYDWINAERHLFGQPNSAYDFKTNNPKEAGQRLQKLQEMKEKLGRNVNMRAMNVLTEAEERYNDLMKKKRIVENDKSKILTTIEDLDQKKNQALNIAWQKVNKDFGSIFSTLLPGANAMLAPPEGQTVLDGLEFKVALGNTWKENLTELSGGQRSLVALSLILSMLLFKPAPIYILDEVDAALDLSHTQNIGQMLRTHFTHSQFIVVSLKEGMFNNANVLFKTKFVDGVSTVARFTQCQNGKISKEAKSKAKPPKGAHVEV
Chain of Tyrosine-protein kinase Fyn (P06241 whole entry): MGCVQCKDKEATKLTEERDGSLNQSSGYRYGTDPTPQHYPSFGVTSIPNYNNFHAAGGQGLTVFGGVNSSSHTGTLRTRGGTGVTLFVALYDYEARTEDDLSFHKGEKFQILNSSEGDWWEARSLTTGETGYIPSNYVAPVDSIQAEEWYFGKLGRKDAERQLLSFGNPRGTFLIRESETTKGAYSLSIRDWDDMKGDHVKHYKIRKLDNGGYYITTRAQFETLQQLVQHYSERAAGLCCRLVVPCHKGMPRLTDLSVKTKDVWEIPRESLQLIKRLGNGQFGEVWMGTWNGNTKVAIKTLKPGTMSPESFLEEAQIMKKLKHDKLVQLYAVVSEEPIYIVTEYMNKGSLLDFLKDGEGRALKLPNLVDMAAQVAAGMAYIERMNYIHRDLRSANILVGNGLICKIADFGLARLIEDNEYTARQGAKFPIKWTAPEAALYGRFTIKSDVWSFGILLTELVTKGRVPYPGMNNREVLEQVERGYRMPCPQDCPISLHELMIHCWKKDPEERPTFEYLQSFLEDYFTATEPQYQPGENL

Kd [1] | Kd [2] | Kd [3] | Kd [4] | Kd [5] | Kd [6] | Kd [7] | Kd [8] | Kd [9] | Kd [10] | Kd [11] | SMILES
> 30 µM (inactive) | > 30 µM (inactive) | > 30 µM (inactive) | 0.732 µM (active) | > 30 µM (inactive) | > 30 µM (inactive) | > 30 µM (inactive) | > 30 µM (inactive) | > 30 µM (inactive) | > 30 µM (inactive) | > 30 µM (inactive) | COC(=O)N[C@@H](C)CNc1nccc(-c2cn(C(C)C)nc2-c2cc(Cl)cc(NS(C)(=O)=O)c2F)n1 [ENCORAFENIB]
> 30 µM (inactive) | > 30 µM (inactive) | > 30 µM (inactive) | > 30 µM (inactive) | > 30 µM (inactive) | > 30 µM (inactive) | > 30 µM (inactive) | > 30 µM (inactive) | > 30 µM (inactive) | > 30 µM (inactive) | > 30 µM (inactive) | CCCS(=O)(=O)Nc1ccc(F)c(C(=O)c2c[nH]c3ncc(-c4ccc(Cl)cc4)cc23)c1F [VEMURAFENIB]
> 30 µM (inactive) | > 30 µM (inactive) | > 30 µM (inactive) | > 30 µM (inactive) | > 30 µM (inactive) | > 30 µM (inactive) | > 30 µM (inactive) | > 30 µM (inactive) | > 30 µM (inactive) | 99.2 µM (active) | > 30 µM (inactive) | CCN1CCN(Cc2ccc(-c3cc4c(N[C@H](C)c5ccccc5)ncnc4[nH]3)cc2)CC1 [AEE-788]
> 30 µM (inactive) | > 30 µM (inactive) | > 30 µM (inactive) | > 30 µM (inactive) | > 30 µM (inactive) | > 30 µM (inactive) | > 30 µM (inactive) | > 30 µM (inactive) | > 30 µM (inactive) | > 30 µM (inactive) | > 30 µM (inactive) | CC[C@H](Nc1ncnc2[nH]cnc12)c1nc2cccc(F)c2c(=O)n1-c1ccccc1 [IDELALISIB]
> 30 µM (inactive) | > 30 µM (inactive) | > 30 µM (inactive) | > 30 µM (inactive) | > 30 µM (inactive) | > 30 µM (inactive) | > 30 µM (inactive) | > 30 µM (inactive) | > 30 µM (inactive) | > 30 µM (inactive) | > 30 µM (inactive) | CNS(=O)(=O)Nc1nccc(Cc2c(C)c3ccc(Oc4ncccn4)cc3oc2=O)c1F [AVUTOMETINIB]
> 30 µM (inactive) | > 30 µM (inactive) | > 30 µM (inactive) | > 30 µM (inactive) | > 30 µM (inactive) | > 30 µM (inactive) | 0.006 µM (active) | > 30 µM (inactive) | > 30 µM (inactive) | > 30 µM (inactive) | > 30 µM (inactive) | O=C(O)[C@]1(Cc2cccc(Nc3nccs3)n2)CC[C@@H](Oc2cccc(Cl)c2F)CC1 [MK-5108]
> 30 µM (inactive) | > 30 µM (inactive) | > 30 µM (inactive) | > 30 µM (inactive) | > 30 µM (inactive) | > 30 µM (inactive) | > 30 µM (inactive) | > 30 µM (inactive) | > 30 µM (inactive) | > 30 µM (inactive) | > 30 µM (inactive) | CC(=O)Nc1cccc(-n2c(=O)n(C3CC3)c(=O)c3c(Nc4ccc(I)cc4F)n(C)c(=O)c(C)c32)c1 [TRAMETINIB]
> 30 µM (inactive) | > 30 µM (inactive) | > 30 µM (inactive) | > 30 µM (inactive) | > 30 µM (inactive) | > 30 µM (inactive) | > 30 µM (inactive) | > 30 µM (inactive) | > 30 µM (inactive) | > 30 µM (inactive) | > 30 µM (inactive) | CO[C@H]1C[C@@H]2CC[C@@H](C)[C@@](O)(O2)C(=O)C(=O)N2CCCC[C@H]2C(=O)O[C@H]([C@H](C)C[C@@H]2CC[C@@H](OCCO)[C@H](OC)C2)CC(=O)[C@H](C)/C=C(\C)[C@@H](O)[C@@H](OC)C(=O)[C@H](C)C[C@H](C)/C=C/C=C/C=C/1C [EVEROLIMUS]
> 30 µM (inactive) | > 30 µM (inactive) | > 30 µM (inactive) | > 30 µM (inactive) | > 30 µM (inactive) | > 30 µM (inactive) | > 30 µM (inactive) | > 30 µM (inactive) | 1.5 µM | > 30 µM (inactive) | > 30 µM (inactive) | C[C@@H](Nc1cc(F)cc(F)c1)c1cc(C(=O)N(C)C)cc2c(=O)cc(N3CCOCC3)oc12 [AZD-8186]
> 30 µM (inactive) | > 30 µM (inactive) | > 30 µM (inactive) | > 30 µM (inactive) | > 30 µM (inactive) | > 30 µM (inactive) | > 30 µM (inactive) | > 30 µM (inactive) | > 30 µM (inactive) | > 30 µM (inactive) | > 30 µM (inactive) | O=c1sn(-c2cccc3ccccc23)c(=O)n1Cc1ccccc1 [TIDEGLUSIB]
> 30 µM (inactive) | > 30 µM (inactive) | > 30 µM (inactive) | > 30 µM (inactive) | > 30 µM (inactive) | > 30 µM (inactive) | > 30 µM (inactive) |  | > 30 µM (inactive) | > 30 µM (inactive) | > 30 µM (inactive) | CNC(=O)c1ccc(C)c(-n2c(C)cc(OCc3ccc(F)cc3F)c(Br)c2=O)c1 [PH-797804]

SMILES | Kd [1] | Kd [2] | Kd [3] | Kd [4] | Kd [5] | Kd [6] | Kd [7] | Kd [8] | Kd [9] | Kd [10] | Kd [11]
Cc1cc(-c2cc(O)ccc2Cl)cc2nnc(Nc3ccc(OCCN4CCCC4)cc3)nc12 | > 30 µM (inactive) | > 30 µM (inactive) | > 30 µM (inactive) | 0.003 µM (active) | 0.0004 µM (active) | > 30 µM (inactive) | > 30 µM (inactive) | > 30 µM (inactive) | > 30 µM (inactive) | > 30 µM (inactive) | > 30 µM (inactive)
